Laboratory results: EP1497263B1, “ACYL-3-CARBOXYPHENYLUREA DERIVATIVES, METHOD FOR PRODUCTION AND USE THEREOF” (Sanofi-Aventis Deutschland GmbH, priority 2002, dated 2003)

System: Humane Glykogenphosphorylase a
Test: Glycogen phosphorylase a activity test (reverse direction, release of inorganic phosphate)
Type: biochemical, human
Details: 10 µM test substance; 40 min at room temperature; duplicate determinations
Text: Glykogenphosphorylase a Aktivitätstest
Der Effekt von Verbindungen auf die Aktivität der aktiven Form der Glykogenphosphorylase (GPa) wurde in der umgekehrten Richtung, durch Verfolgen der Glykogensynthese aus Glukose-1-Phosphat an Hand der Bestimmung der Freisetzung von anorganischem Phosphat, gemessen. Alle Reaktionen wurden als Doppelbestimmungen in Mikrotiterplatten mit 96-Vertiefungen (Half Area Plates, Costar Nr. 3696) durchgeführt, wobei die Änderung der Absorption auf Grund der Bildung des Reaktionsprodukts bei der weiter unten spezifizierten Wellenlänge in einem Multiskan Ascent Elisa Reader (Lab Systems, Finnland) gemessen wurde. Um die GPa Enzymaktivität in der umgekehrten Richtung zu messen, wurde die Umwandlung von Glukose-1-Phosphat in Glykogen und anorganisches Phosphat nach der allgemeinen Methode von Engers et al. (Engers HD, Shechosky S, Madsen NB, Can J Biochem 1970 Jul;48(7):746-754) mit folgenden Modifikationen gemessen: Humane Glykogenphosphorylase a (zum Beispiel mit 0,76 mg Protein / ml (Aventis Pharma Deutschland GmbH), gelöst in Pufferlösung E (25 mM β-Glyzerophosphat, pH 7,0, 1 mM EDTA und 1 mM Dithiotreitol) wurde mit Puffer T (50 mM Hepes, pH 7,0, 100 mM KCI, 2,5 mM. EDTA, 2,5 mM MgCl2·6H2O) und Zusatz von 5 mg/ml Glykogen auf eine Konzentration von 10 µg Protein/ml verdünnt. […]

Compound | % Inhibition bei 10 µM
CCOC(=O)c1ccc(NC(=O)NC(=O)c2c(F)cccc2F)cc1 [Vergleichsbeispiel A] | 3%
Cc1ccccc1C(=O)NC(=O)Nc1cc(C(=O)O)ccc1Cl [compound 5] | 46%
